System: CD34^+CD38^− cells
Experiment: Expansion of CD34+CD38− cells from human cord blood-derived CD34+ cells (Example 2)
Assay type: cell-based
Conditions: 1 μg/mL compound, 50 ng/mL SCF, StemSpan SFEM, 7 days, based on number of CD34+CD38− cells in the absence of compound; for fold induction at 1 µg/mL: Homo sapiens, 168 h, read-out: Expansion efficiency
Method: The human cord blood-derived CD34^+ cells collected or purchased in Example 1 were plated on a 24-well plate (TPP) (10000 cells/1/mL/well). As the culture medium, StemSpan SFEM (Stemcell Technologies) containing 50 ng/mL SCF (Peprotech) was used, and Compounds No. 1 to 133 dissolved in dimethyl sulfoxide were added in an amount of 0.1% (v/v) to a final concentration of 1 μg/mL.
After the cells were incubated in liquid culture at 37° C. for 7 days in a CO2 incubator (5% CO2), the number of viable cells was counted by trypan blue assay. The number of CD34^+CD38^− cells was calculated as follows. After the incubation, the cells in the liquid culture was stained with a CD34 antibody (APC, Becton, Dickinson and Company) and a CD38 antibody (PE, Becton, Dickinson and Company), then washed with PBS(−) containing 2% (v/v) FBS and stained with propidium iodide (Sigma-Aldrich Japan) added to a final concentration of 5 μg/mL. The stained cells were analyzed with a flow cytometer JSAN (Bay Bioscience) to determined the proportion of CD34^+CD38^− cells, which was multiplied by the number of viable cells to calculate the number of CD34^+CD38^− cells.
The expansion efficiencies in the presence of 1 μg/mL of compounds based on the number of CD34^+CD38^− cells in the absence of them are shown in Tables 2 and 3 on a scale of A for expansion efficiencies of 10 or greater, B for expansion efficiencies of at least 5 and less than 10, and C for expansion efficiencies of at least 3 and less than 5.

Row | SMILES | fold induction at 1 µg/mL | Expansion efficiency
1 | C/C(=N\NC(=O)c1ccc(C(=O)NCCN2CCCC2)s1)c1csc(-c2ccc(Cl)c(Cl)c2)c1O [compound 67] | 3 to 5 | –
2 | C/C(=N\NC(=O)c1ccc(C(=O)NC2CCC(O)CC2)s1)c1csc(-c2ccc(Cl)c(Cl)c2)c1O (centres unmarked) [compound 68] | 5 to 10 | –
3 | CCCCCNC(=O)c1ccc(C(=O)N/N=C(\C)c2csc(-c3ccc(Cl)c(Cl)c3)c2O)s1 [compound 69] | 3 to 5 | –
4 | C/C(=N\NC(=O)c1ccc(C(=O)NCCO)s1)c1csc(-c2ccc(Cl)cc2)c1O [compound 70] | – | B (B for expansion efficiencies of at least 5 and less than 10)
5 | CCN(CC)C(=O)c1ccc(C(=O)N/N=C(\C)c2csc(-c3ccc(Cl)cc3)c2O)s1 [compound 71] | 5 to 10 | –
6 | C/C(=N\NC(=O)c1ccc(C(=O)NCc2ccccn2)s1)c1csc(-c2ccc(Cl)c(Cl)c2)c1O [compound 72] | 5 to 10 | –
7 | C/C(=N\NC(=O)c1ccc(C(=O)NCCCCO)s1)c1csc(-c2ccc(Cl)c(Cl)c2)c1O [compound 73] | 5 to 10 | –
8 | C/C(=N\NC(=O)c1ccc(C(=O)NCc2ccccn2)s1)c1csc(-c2cccc(Cl)c2)c1O [compound 75] | 3 to 5 | –
9 | CCCN(C)C(=O)c1ccc(C(=O)N/N=C(\C)c2csc(-c3ccc(Cl)cc3)c2O)s1 [compound 76] | 3 to 5 | –
10 | C/C(=N\NC(=O)c1ccc(C(=O)NC(C)C)s1)c1csc(-c2ccc(Cl)cc2)c1O [compound 77] | 5 to 10 | –
11 | C/C(=N\NC(=O)c1ccc(C(=O)NC(C)C)s1)c1csc(-c2cccc(Cl)c2)c1O [compound 78] | 5 to 10 | –
12 | C/C(=N\NC(=O)c1ccc(C(=O)N(C)Cc2ccccc2)s1)c1csc(-c2cccc(Cl)c2)c1O [compound 79] | 3 to 5 | –
13 | C/C(=N\NC(=O)c1ccc(C(=O)N(C)Cc2ccccn2)s1)c1csc(-c2ccc(Cl)c(Cl)c2)c1O [compound 80] | 3 to 5 | –
14 | CCN(C)C(=O)c1ccc(C(=O)N/N=C(\C)c2csc(-c3ccc(Cl)c(Cl)c3)c2O)s1 [compound 81] | 3 to 5 | –
15 | C/C(=N\NC(=O)c1ccc(C(=O)NCc2cn(C)cn2)s1)c1csc(-c2ccc(OC(F)(F)F)cc2)c1O [compound 82] | 3 to 5 | –
16 | C/C(=N\NC(=O)c1ccc(C(=O)NCc2ccc(C(=O)O)cc2)s1)c1csc(-c2ccc(Cl)c(Cl)c2)c1O [compound 83] | 3 to 5 | –
17 | C/C(=N\NC(=O)c1ccc(C(=O)NCc2ccncn2)s1)c1csc(-c2ccc(Cl)c(Cl)c2)c1O [compound 84] | 5 to 10 | –
18 | CCCN(CC)C(=O)c1ccc(C(=O)N/N=C(\C)c2csc(-c3ccc(Cl)c(Cl)c3)c2O)s1 [compound 85] | 3 to 5 | –
19 | C/C(=N\NC(=O)c1ccc(C(=O)NCc2ccc(C(N)=O)cc2)s1)c1csc(-c2ccc(C(C)(C)C)cc2)c1O [compound 86] | ≥ 10 | –
20 | C/C(=N\NC(=O)c1ccc(C(=O)NCc2ccc(C(N)=O)cc2)s1)c1csc(-c2ccc(Br)cc2)c1O [compound 87] | ≥ 10 | –
21 | C/C(=N\NC(=O)c1ccc(C(=O)NCc2ccc(C(N)=O)cc2)s1)c1csc(-c2ccc(C(F)(F)F)cc2)c1O [compound 88] | ≥ 10 | –
22 | C/C(=N\NC(=O)c1ccc(C(=O)NCc2ccc(C(N)=O)cc2)s1)c1csc(-c2ccc(Cl)cc2)c1O [compound 89] | ≥ 10 | –
23 | C/C(=N\NC(=O)c1ccc(C(=O)NCc2ccc(C(N)=O)cc2)s1)c1csc(-c2ccc(OC(F)(F)F)cc2)c1O [compound 90] | ≥ 10 | –
24 | COc1ccc(-c2scc(/C(C)=N/NC(=O)c3ccc(C(=O)NCc4ccc(C(N)=O)cc4)s3)c2O)cc1 [compound 91] | ≥ 10 | –
25 | C/C(=N\NC(=O)c1ccc(C(=O)NCc2cccc(C(N)=O)c2)s1)c1csc(-c2ccc(Cl)c(Cl)c2)c1O [compound 92] | ≥ 10 | –
26 | C/C(=N\NC(=O)c1ccc(C(=O)NCc2cccc(C(N)=O)c2)s1)c1csc(-c2ccc(C(C)(C)C)cc2)c1O [compound 93] | ≥ 10 | –
